Measured values from ChEMBL document CHEMBL5055662, “Characterization of an aromatic trifluoromethyl ketone as a new warhead for covalently reversible kinase inhibitor design” (Bioorg Med Chem, 2021).

Legend:
[1] = molecular target: Fibroblast growth factor receptor 1 (Homo sapiens, UniProt P11362); test: Inhibition of FGFR1 (unknown origin) using Tyr04 peptide as substrate incubated for 1 hr in presence of ATP by FRET based Z'-LYTE assay
[2] = molecular target: Fibroblast growth factor receptor 2 (Homo sapiens, UniProt P21802); test: Inhibition of FGFR2 (unknown origin) using Tyr04 peptide as substrate incubated for 1 hr in presence of ATP by FRET based Z'-LYTE assay
Fibroblast growth factor receptor 2, sequence (P21802 whole entry): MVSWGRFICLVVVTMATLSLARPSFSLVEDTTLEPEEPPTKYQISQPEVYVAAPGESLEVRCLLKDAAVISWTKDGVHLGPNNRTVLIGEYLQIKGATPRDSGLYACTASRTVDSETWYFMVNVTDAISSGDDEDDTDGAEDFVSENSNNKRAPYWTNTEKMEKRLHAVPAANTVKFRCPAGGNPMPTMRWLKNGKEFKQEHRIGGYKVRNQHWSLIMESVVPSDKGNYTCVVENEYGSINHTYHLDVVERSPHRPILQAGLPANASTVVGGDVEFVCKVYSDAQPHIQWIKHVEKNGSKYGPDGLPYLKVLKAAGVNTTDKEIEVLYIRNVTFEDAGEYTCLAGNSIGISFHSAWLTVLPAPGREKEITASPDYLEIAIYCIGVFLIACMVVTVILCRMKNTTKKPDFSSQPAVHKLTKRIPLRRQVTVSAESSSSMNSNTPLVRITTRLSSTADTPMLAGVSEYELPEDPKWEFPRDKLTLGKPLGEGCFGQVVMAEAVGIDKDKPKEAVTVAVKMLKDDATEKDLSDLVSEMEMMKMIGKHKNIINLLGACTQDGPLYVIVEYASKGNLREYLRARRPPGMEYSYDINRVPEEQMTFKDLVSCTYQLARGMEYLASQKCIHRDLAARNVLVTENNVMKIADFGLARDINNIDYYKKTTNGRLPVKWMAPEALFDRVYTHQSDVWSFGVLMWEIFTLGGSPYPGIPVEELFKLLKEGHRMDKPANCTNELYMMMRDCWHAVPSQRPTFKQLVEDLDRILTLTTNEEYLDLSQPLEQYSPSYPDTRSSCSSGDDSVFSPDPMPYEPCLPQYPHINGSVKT

[3] = molecular target: Fibroblast growth factor receptor 3 (Homo sapiens, UniProt P22607); test: Inhibition of FGFR3 (unknown origin) using Tyr04 peptide as substrate incubated for 1 hr in presence of ATP by FRET based Z'-LYTE assay
Fibroblast growth factor receptor 3, sequence (P22607 whole entry): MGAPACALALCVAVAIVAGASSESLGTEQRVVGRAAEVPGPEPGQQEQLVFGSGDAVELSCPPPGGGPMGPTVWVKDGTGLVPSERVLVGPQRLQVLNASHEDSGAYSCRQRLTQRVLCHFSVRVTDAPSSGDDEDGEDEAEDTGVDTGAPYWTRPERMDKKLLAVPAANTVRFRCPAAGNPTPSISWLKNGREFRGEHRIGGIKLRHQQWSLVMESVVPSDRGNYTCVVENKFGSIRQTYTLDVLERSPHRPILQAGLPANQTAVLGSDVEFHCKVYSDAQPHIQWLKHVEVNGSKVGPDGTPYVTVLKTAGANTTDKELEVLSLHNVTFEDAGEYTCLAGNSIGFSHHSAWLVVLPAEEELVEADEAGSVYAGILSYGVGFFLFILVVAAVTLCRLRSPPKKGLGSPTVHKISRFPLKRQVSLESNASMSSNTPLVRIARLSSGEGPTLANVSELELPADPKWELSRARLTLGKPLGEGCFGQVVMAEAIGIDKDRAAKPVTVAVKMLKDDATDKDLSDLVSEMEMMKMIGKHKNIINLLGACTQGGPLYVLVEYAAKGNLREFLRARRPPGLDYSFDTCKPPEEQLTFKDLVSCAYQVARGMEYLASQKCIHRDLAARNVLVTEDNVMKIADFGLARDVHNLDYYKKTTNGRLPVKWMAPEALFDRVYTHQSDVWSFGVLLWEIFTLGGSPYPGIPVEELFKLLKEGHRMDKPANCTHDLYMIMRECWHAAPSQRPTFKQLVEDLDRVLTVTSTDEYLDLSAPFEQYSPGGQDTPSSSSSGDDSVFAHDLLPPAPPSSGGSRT

[4] = molecular target: T1, Tyrosine-protein kinase JAK3 (Homo sapiens, UniProt P52333); test: Inhibition of JAK3 (unknown origin) incubated for 1 hr in presence of ATP and substrate by FRET based Z'-LYTE assay
T1 sequence (P52333 whole entry): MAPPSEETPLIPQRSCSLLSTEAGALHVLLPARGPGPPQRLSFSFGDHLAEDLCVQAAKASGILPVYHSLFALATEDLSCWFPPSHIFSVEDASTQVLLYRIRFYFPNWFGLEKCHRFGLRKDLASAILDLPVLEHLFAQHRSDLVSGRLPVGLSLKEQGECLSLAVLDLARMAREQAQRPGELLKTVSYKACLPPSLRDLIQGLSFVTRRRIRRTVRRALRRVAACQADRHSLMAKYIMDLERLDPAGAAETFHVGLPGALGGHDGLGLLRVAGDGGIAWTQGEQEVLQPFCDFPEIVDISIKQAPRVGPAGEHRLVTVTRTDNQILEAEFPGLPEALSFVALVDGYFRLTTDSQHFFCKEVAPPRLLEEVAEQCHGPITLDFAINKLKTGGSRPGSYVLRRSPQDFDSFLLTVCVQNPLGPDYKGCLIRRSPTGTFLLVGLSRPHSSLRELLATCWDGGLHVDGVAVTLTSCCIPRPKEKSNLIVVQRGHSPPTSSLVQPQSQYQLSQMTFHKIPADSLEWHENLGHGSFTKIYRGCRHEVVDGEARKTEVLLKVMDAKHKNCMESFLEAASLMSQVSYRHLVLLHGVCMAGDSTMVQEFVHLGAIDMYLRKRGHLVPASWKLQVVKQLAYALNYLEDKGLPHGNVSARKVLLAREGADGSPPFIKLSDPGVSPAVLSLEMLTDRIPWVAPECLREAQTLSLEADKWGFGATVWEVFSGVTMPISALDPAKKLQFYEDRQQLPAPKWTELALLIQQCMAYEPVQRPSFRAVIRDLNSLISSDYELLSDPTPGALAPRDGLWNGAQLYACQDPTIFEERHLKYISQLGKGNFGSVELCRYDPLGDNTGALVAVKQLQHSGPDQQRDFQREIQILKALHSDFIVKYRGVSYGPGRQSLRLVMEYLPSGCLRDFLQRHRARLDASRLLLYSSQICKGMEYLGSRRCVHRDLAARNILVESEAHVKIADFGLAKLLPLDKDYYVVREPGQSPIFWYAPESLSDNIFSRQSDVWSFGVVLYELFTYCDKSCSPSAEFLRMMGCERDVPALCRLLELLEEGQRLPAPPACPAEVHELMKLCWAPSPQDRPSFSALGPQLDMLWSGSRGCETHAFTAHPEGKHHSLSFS

[5] = molecular target: Fibroblast growth factor receptor 4 (Homo sapiens) (UniProt P22455); test: Reversible covalent binding affinity to recombinant His-tagged human FGFR4 expressed in baculovirus expression system assessed as recovery of kinase activity preincubated for 120 mins followed by dialysis of protein for 3 days by MALDI-TOF MS analysis relative to control; details: time 4440.0 min
Fibroblast growth factor receptor 4 (Homo sapiens), sequence (P22455 22-802 limits assumed): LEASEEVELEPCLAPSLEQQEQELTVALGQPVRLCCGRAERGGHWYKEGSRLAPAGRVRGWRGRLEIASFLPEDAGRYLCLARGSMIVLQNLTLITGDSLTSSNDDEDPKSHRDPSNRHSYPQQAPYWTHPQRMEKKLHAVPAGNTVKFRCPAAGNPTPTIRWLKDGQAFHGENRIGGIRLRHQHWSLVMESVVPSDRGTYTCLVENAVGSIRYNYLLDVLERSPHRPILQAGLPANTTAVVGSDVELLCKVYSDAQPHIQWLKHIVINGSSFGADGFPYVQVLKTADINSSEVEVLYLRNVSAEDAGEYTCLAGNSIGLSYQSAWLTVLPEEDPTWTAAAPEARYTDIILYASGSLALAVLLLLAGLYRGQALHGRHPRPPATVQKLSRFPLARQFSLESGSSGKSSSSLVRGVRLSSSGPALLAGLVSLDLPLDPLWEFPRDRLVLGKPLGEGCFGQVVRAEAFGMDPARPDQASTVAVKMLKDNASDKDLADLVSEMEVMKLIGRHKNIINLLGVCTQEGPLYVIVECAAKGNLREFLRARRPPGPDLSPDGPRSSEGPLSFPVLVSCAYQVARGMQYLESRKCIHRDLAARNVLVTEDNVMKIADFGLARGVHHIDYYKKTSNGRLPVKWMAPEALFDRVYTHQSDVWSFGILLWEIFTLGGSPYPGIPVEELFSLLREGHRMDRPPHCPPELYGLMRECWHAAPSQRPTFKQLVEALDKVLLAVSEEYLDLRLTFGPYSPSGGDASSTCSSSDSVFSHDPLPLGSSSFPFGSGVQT

Fibroblast growth factor receptor 1, sequence (P11362 whole entry): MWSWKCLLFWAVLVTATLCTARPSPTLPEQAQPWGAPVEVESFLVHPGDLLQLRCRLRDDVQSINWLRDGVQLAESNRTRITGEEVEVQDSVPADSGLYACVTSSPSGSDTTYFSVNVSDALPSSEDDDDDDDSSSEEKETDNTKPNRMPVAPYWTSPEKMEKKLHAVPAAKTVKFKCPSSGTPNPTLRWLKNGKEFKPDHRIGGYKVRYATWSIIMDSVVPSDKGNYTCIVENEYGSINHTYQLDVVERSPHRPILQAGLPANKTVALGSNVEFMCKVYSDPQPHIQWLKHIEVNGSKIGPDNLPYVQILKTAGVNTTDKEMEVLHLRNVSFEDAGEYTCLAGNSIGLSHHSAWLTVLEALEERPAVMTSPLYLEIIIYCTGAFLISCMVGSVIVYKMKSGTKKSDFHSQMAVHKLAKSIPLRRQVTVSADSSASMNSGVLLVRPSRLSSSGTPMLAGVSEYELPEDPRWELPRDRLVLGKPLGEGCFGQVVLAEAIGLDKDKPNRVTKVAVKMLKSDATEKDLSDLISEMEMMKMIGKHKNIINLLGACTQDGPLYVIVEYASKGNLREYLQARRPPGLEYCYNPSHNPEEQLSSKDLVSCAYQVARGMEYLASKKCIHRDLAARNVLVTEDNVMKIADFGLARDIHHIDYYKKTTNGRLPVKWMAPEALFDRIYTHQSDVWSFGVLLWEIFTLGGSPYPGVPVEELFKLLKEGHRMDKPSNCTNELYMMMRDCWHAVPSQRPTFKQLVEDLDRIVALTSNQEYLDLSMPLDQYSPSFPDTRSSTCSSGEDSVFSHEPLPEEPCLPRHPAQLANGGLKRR

| Compound | IC50 [1] [µM] | IC50 [2] [µM] | IC50 [3] [µM] | IC50 [4] [µM] | Activity [5] [%] |
| --- | --- | --- | --- | --- | --- |
| CCCOc1cc(NC(=O)N2CCCc3ccc(C(=O)C(F)(F)F)nc32)ncc1C#N | > 10 | > 10 | > 10 | – | – |
| CC(C)Oc1cc(NC(=O)N2CCCc3ccc(C=O)nc32)ncc1C#N | > 10 | > 10 | > 10 | – | – |
| CC(C)Oc1cc(NC(=O)N2CCCc3ccc(C(=O)C(F)(F)F)nc32)ncc1C#N | > 10 | > 10 | > 10 | – | – |
| COCCOc1cc(NC(=O)N2CCCc3ccc(C(=O)C(F)(F)F)nc32)ncc1C#N | > 10 | > 10 | > 10 | – | – |
| O=C(c1ccc(-c2nc3cnc4[nH]ccc4c3n2C2CCCCC2)o1)C(F)(F)F | – | – | – | 0.0872 | – |
| COCCNc1cc(NC(=O)N2CCCc3ccc(C(=O)C(F)(F)F)nc32)ncc1C#N | > 10 | > 10 | > 10 | – | – |
| CCCCOc1cc(NC(=O)N2CCCc3ccc(C(=O)C(F)(F)F)nc32)ncc1C#N | > 10 | > 10 | > 10 | – | – |
| N#Cc1cnc(NC(=O)N2CCCc3ccc(C(=O)C(F)(F)F)nc32)cc1OC1CCOC1 (stereo not given) | > 10 | > 10 | > 10 | – | – |

Continued, values first:

| IC50 [1] [µM] | IC50 [2] [µM] | IC50 [3] [µM] | IC50 [4] [µM] | Activity [5] [%] | Compound |
| --- | --- | --- | --- | --- | --- |
| > 10 | > 10 | > 10 | – | – | N#Cc1cnc(NC(=O)N2CCCc3ccc(C(=O)C(F)(F)F)nc32)cc1OC1CCCCC1 |
| > 10 | > 10 | > 10 | – | – | CCOc1cc(NC(=O)N2CCCc3ccc(C(=O)C(F)(F)F)nc32)ncc1C#N |
| > 10 | > 10 | > 10 | – | – | N#Cc1cnc(NC(=O)N2CCCc3ccc(C(=O)C(F)(F)F)nc32)cc1OC1CCCC1 |
| – | – | – | – | 100 | Cc1ccc(C(=O)Nc2ccc(CN3CCN(C)CC3)c(C(F)(F)F)c2)cc1C#Cc1cnc2cccnn12 |
| > 10 | > 10 | > 10 | – | – | COc1cc(NC(=O)N2CCCc3ccc(C(=O)C(F)(F)F)nc32)ncc1C#N |
